In patent publication US7001896B2, “Compositions for treating diabetes” (Otsuka Pharmaceutical Factory, Inc., priority 2000, dated 2006):

Test system: New Zealand white rabbits given high-fat, high-sugar feed
Assay: Pharmacological Test Example 1: serum glucose level in rabbits fed high-fat, high-sugar feed
Assay type: in vivo
Conditions: for serum glucose level (mean±S.D.): Group 2 (n = 6), high-fat, high-sugar feed containing 1% Compound A from week 4, fasted overnight, feed 35 g/kg/day
Source text: In this test, New Zealand white rabbits each weighing about 2 kg were divided into three groups, i.e., Group 1 consisting of 5 rabbits, Group 2 consisting of 6 rabbits, and Group 3 consisting of 6 rabbits.
The Group 1 rabbits were fed on an ordinary feed (Standard laboratory chow for rabbits, product of Shanghai Shengwang Experimental Animal Ranch (P.R. China)) (Normal Group).
The Group 2 rabbits were given for 4 weeks a high-fat, high-sugar feed prepared by adding 10% lard and 37% sucrose to the above-described standard laboratory chow. After confirming increases in blood glucose level, these rabbits were fed a high-fat, high-sugar feed as described above but containing 1% of the active ingredient (Compound A) of the pharmaceutical composition of the invention for treating diabetes (Experimental Group).
The Group 3 rabbits were fed the high-fat, high-sugar feed prepared by adding 10% lard and 37% sucrose to the standard laboratory chow described above (Control Group).
The rabbits of each group were allowed to eat the respective feeds ad libitum. In all groups, the amount of feed given was 35 g/kg/day per rabbit. The test period (period of feeding) was 24 weeks.
At the beginning of the test (0 week) and 4 weeks, 8 weeks, 12 weeks, 16 weeks, 20 weeks and 24 weeks later, the rabbits of each group fasted overnight, and blood samples were then collected from the auricular artery and assayed to measure the serum glucose level (mg/dl) using a commercially available glucose determination kit for enzymatic assaying (Glucose determination kit (Glucose oxidase-peroxidase method), product of Shanghai Rongsheng Biotech Inc. (P.R China).

CCOP(=O)(Cc1ccc(C(=O)Nc2ccc(Br)cc2C#N)cc1)OCC [Compound A, 4-diethoxyphosphinoylmethyl-N-(4-bromo-2-cyanophenyl)benzamide]
serum glucose level (mean±S.D.) (8 weeks later): 124.7 ± 29.2 mg/dL
serum glucose level (mean±S.D.) (12 weeks later): 84.7 ± 19.5 mg/dL
serum glucose level (mean±S.D.) (16 weeks later): 85.3 ± 12.8 mg/dL
serum glucose level (mean±S.D.) (20 weeks later): 90.0 ± 15.7 mg/dL
serum glucose level (mean±S.D.) (24 weeks later): 73.6 ± 6.1 mg/dL
change in blood glucose level (in words) (Group 2 given high-fat, high-sugar feed containing Compound A from 4 weeks after the beginning of the test, 24-week test, versus Control Group 3 with continuous increase): significant decrease in blood glucose level over time
